{"source": "patent US8178544B2", "about": "“2, 3-diamino-quinazolinone derivatives and their medical use” (Neurosearch A/S, priority 2007, dated 2012)"}
{"target": "T1, human Kv7.2+Kv7.3 channels (Homo sapiens, UniProt O43525+O43526)", "T1 construct": "expressed in transfected cells; host or cells: HEK293", "assay": "Patch-clamp on HEK293 cell lines stably expressing human Kv7.2+Kv7.3 channels", "assay_type": "cell-based", "conditions": "current relative to baseline current defined as 100%, HEK293 cells, test concentration not given", "text": "The effect obtained by these channel activators is described as a percentage increase in baseline current at a given concentration. The baseline current is defined as 100%, and an increase in current is expressed relative to this, i.e. an increase from 1 nA to 1.2 nA is reported as 120%.", "units": {"IK (%) at −30 mV, 1 s": "%"}}
{"smiles": "O=C(Cc1cc(F)cc(F)c1)Nn1c(N2CCCC2)nc2ccccc2c1=O", "note": "[Compound C1, 2-(3,5-Difluoro-phenyl)-N-(4-oxo-2-pyrrolidin-1-yl-4H-quinazolin-3-yl)-acetamide]", "IK (%) at −30 mV, 1 s": 150}
{"smiles": "CCN(CC)c1nc2ccccc2c(=O)n1NC(=O)Cc1ccc(Cl)cc1", "note": "[Compound C3, 2-(4-Chloro-phenyl)-N-(2-diethylamino-4-oxo-4H-quinazolin-3-yl)-acetamide]", "IK (%) at −30 mV, 1 s": 144}
{"smiles": "CC(C(=O)Nn1c(N(C)C)nc2cc(C(F)(F)F)ccc2c1=O)c1cc(F)cc(F)c1", "note": "(stereo not shown) [Compound C5, 2-(3,5-Difluoro-phenyl)-N-(2-dimethylamino-4-oxo-7-trifluoromethyl-4H-quinazolin-3yl)-propionamide]", "IK (%) at −30 mV, 1 s": 143}
{"smiles": "O=C(Cc1ccc(C(F)(F)F)c(F)c1)Nn1c(N2CCCC2)nc2ccccc2c1=O", "note": "[Compound C11, 2-(3-Fluoro-4-trifluoromethyl-phenyl)-N-(4-oxo-2-pyrrolidin-1-yl-4H-quinazolin-3-yl)-acetamide]", "IK (%) at −30 mV, 1 s": 153}
{"smiles": "CCN(CC)c1nc2ccc(F)cc2c(=O)n1NC(=O)Cc1cc(F)cc(F)c1", "note": "[Compound C19, N-(2-Diethylamino-6-fluoro-4-oxo-4H-quinazolin-3-yl)-2-(3,5-difluoro-phenyl)-acetamide]", "IK (%) at −30 mV, 1 s": 215}
{"smiles": "CCN(CC)c1nc2ccccc2c(=O)n1NC(=O)Cc1cc(F)cc(F)c1", "note": "[Compound D2, N-(2-Diethylamino-4-oxo-4H-quinazolin-3-yl)-2-(3,5-difluoro-phenyl)-acetamide]", "IK (%) at −30 mV, 1 s": 290}
{"smiles": "CCN(CC)c1nc2ccc(O)cc2c(=O)n1NC(=O)Cc1cc(F)cc(F)c1", "note": "[Compound F1, N-(2-Diethylamino-6-hydroxy-4-oxo-4H-quinazolin-3-yl)-2-(3,5-difluoro-phenyl)-acetamide]", "IK (%) at −30 mV, 1 s": 110}
